From US20100056637A1, “TREATMENT METHODS USING TRIARYL METHANE COMPOUNDS” (Icagen, Inc., priority 2005, published 2010)
Read-outs that look alike come from different tables or passages of the source.

Experiments:
[1] = Inhaled allergen challenge in human subjects, placebo vs Senicapoc, 13 days; assay type: in vivo; conditions: for fraction of exhaled nitric oxide: after 13 days of treatment, no change in placebo group
Protocol: FIG. 9. FIG. 9A study design. […] FIG. 9B. Change in FEV1 over time past allergen challenge (AC) in human subjects. The late allergen response (LAR) is the decline in FEV1 4 to 10 hours after patients were challenged with an inhaled allergen. The magnitude of the decline in LAR is quantified as the area bounded by the baseline FEV1 (0%), and the actual FEV1 measurements between hours 4 and 10. Subjects randomized to 13 days of treatment with placebo had no change in the LAR (left panel). […] By analysis of co-variance, the difference in LAR at Day 13 between the two treatment groups was 29%.
By analysis of co-variance, the difference in late airway responsiveness between the two treatment groups was 29% (see, FIG. 9B). In addition, the fraction of nitric oxide exhaled by Senicapoc-treated group declined with no change seen in the placebo group (data not shown).

[2] = Half-life in blood; assay type: in vitro ADME; conditions: including human blood
From the text: Triphenylacetamide-based K^+-channel blockers are promising candidates for the treatment of sickle cell disease (SCD) as discussed in U.S. Pat. No. 6,288,122 which is herein incorporated by reference. In addition, studies indicate that triphenylacetamide-based inhibitors are potential candidate drugs for the treatment of inflammatory conditions.

[3] = cited from earlier work; for mean Cmax / mean total systemic dose / oral clearance rate / terminal half-life: patients with sickle cell disease
[4] = biological target: recombinant human KCa3.1 (Homo sapiens, UniProt O15554); assay: Whole patch clamp of potassium currents in CHO cells stably expressing recombinant human KCa3.1; assay type: cell-based; conditions: 1000 nM Senicapoc; FIG. 2 right panel; cell type not stated
[5] = tested on: A. suum sensitized sheep; assay: Ascaris suum allergen challenge model of asthma in sheep; assay type: in vivo
Protocol: Briefly, baseline lung resistance (RL) and carbachol concentration response curves were obtained prior to A. suum challenge in sheep. […] Lung resistance was subsequently measured at 0, 1, 2, 3, and 4 hours post allergen challenge to assess early airway responses and at 5, 6, 6.5, 7, 7.5 and 8 hours to assess late airway responses. At 24 hours post challenge, airway hyper-reactivity was determined based on responses to increasing doses of carbachol. Data were analyzed by a one way ANOVA followed by Dunnett's post hoc test when more than 2 groups were compared, or by a t-test when only 2 groups were compared.

[6] = tested on: human lung mast cells (HLMC); assay: HLMC chemotaxis (mast cell migration) assay, Transwell system; assay type: cell-based; conditions: airway smooth muscle-conditioned media; 10, 100, 1000 nM; 3 hours
Protocol: Mast cell migration studies were then performed by a method similar to as described in the method of Cruse et al. (Thorax. 2006 61:880-5). Briefly, HLMC chemotaxis assays were performed using the Transwell system with 24 wells. Airway smooth muscle-conditioned media was placed in the lower wells. […] After incubating the cells for 3 hours at 37° C., the number of HLMC in the bottom well were counted using Kimura stain in a hemocytometer. HLMC migration was calculated as the fold increase of migrated cells in the test wells compared with the negative control containing no chemoattractant in the lower well (FIG. 1).

[7] = Pharmacokinetics of Senicapoc in sheep plasma; assay type: in vivo; conditions: 30 mg/kg po b.i.d.; relative to levels required to block KCa3.1
Protocol: Since statistically significant effects were observed on lung resistance and airway hyper-reactivity following the 30 mg/kg dose, this level of exposure is sufficient to achieve efficacy in the sheep model. FIG. 7 illustrates exposure in man following administration of a range of doses. The average efficacious plasma level from the sheep model is illustrated by the dashed line.

With `NC(=O)C(c1ccccc1)(c1ccc(F)cc1)c1ccc(F)cc1` [Senicapoc, 2,2-bis(4-fluorophenyl)-2-phenylacetamide] the “difference in late airway responsiveness (LAR, FEV1 decline 4 to 10 hours) between Senicapoc and placebo groups” value ([1]; Day 13, 80 mg BID for three days, then 40 mg daily, analysis of co-variance) was 29%, the “fraction of exhaled nitric oxide” value [1] was “declined” and the “fraction of exhaled nitric oxide” value ([1]; listed as senicapoc) was “decreased”. The half-life in blood [2] was “long half-life”, the mean elimination half-life ([3]; oral dose, across three clinical studies, 68 patients) was 12 to 17 days and the “mean Cmax” value ([3]; 50 mg single dose) was 59.1 ng/mL. For the same compound, the “mean total systemic dose” value ([3]; 50 mg single dose) was 11,826 ng·hr/ml, the oral clearance rate ([3]; 50 mg single dose) was 4.75 L/h and the terminal half-life ([3]; 50 mg single dose) was 15.4 days. For the same compound, the “mean Cmax” value ([3]; 100 mg single dose) was 108.7 ng/mL, the “mean total systemic dose” value ([3]; 100 mg single dose) was 19,696 ng·hr/ml and the oral clearance rate ([3]; 100 mg single dose) was 6.1 L/h. For the same compound, the terminal half-life ([3]; 100 mg single dose) was 9.12 days, the “mean Cmax” value ([3]; 150 mg single dose) was 109.1 ng/mL and the “mean total systemic dose” value ([3]; 150 mg single dose) was 30,675 ng·hr/ml. The oral clearance rate ([3]; 150 mg single dose) was 5.8 L/h, the terminal half-life ([3]; 150 mg single dose) was 12.4 days and the “drug-related serious adverse events” value ([3]; phase I clinical studies) was “no drug-related serious adverse events”. The “channel inhibition with varied voltage” value [4] was “nearly complete channel inhibition”, the “reversal of the hyper-reactivity to carbachol” value ([5]; 30 mg/kg PO for 4 days) was “Complete reversal” and the “apparent reduction in peak early response” value ([5]; 30 mg/kg PO, not statistically significant) was 33%. For the same compound, the “average late allergen responses (lung resistance)” value ([5]; 5-8 hours after allergen challenge, oral, IV and inhalation routes) was “significantly attenuates”, the “hyper-reactivity to aerosolized carbachol” value ([5]; 24 hours post A. suum challenge, all three routes of administration) was “significantly reduced” and the “reversal of the hyper-reactivity to carbachol” value ([5]; acute 10 mg/kg IV dosing) was “Complete reversal”. The “peak early airway responses” value ([5]; immediately after allergen challenge, 10 mg/kg IV) was “significantly reduced”, the “HLMC migration resulting from inflammatory stimuli” value [6] was “inhibits” and the “plasma exposure corrected for protein binding” value [7] was “sustained levels significantly above those required to block KCa3.1”.
